Reference: US9212151B2, “Heterocyclic compounds useful for kinase inhibition” (Amitech Therapeutic Solutions, Inc., priority 2010, dated 2015)

Experiment: MTT cell viability assay, compounds at 5, 1 and 0.2 μM, 48 hours
Format: cell-based
Conditions: human, A549 tumor cells
Procedure: MTT assay is used to determine cell proliferation, percent of viable cells, and cytotoxicity. MTT (3-[4,5-dimethylthiazol-2-yl]2,5-diphenyltetrazolium bromide) is a yellow dye, which can be absorbed by the living cells and be reduced to purplish blue formazan crystals by succinate tetrazolium reductase in mitochondria. Formazan formation can therefore be used to assess and determine the survival rate of cells.
Tumor cells (A549) were plated at 2500 cells/well of a 96-well plate in complete growth medium (DMEM+10% FBS, antibiotic/antimycotic, fungizone, L-glutamine, sodium pyruvate, and non-essential amino acids). The cells were allowed to grow overnight. After cell proliferation, the cells were washed and re-suspended in fresh culture medium and placed in 96 well plates.
To each of the 96 well plates containing A549 and a control, 5, 1, and 0.2 μM of the exemplary compounds 1-200 were add. The 96 well plates were incubated for 48 hours. Cell viability was measured by adding MTT (Sigma) at 5 mg/ml for 4 h to the cells and then removing the medium and resuspending each well in 50 μl DMSO to solubilize the crystals. The 96-well plates were read on a plate-scanning spectrophotometer (BioTek) at an absorbance of […]. The survival rate of cells was calculated based on the measurement of absorption at the 570 nm wavelength by enzyme immunoassay analyzer.

| SMILES | viability at 48 h, 0.2 µM (0.2 μM) | viability at 48 h, 1 µM (1 μM) | viability at 48 h, 5 µM (5 μM) | viability at 48 h, 0.2 µM (0.2 μM compound) | viability at 48 h, 1 µM (1 μM compound) | viability at 48 h, 5 µM (5 μM compound) |
| --- | --- | --- | --- | --- | --- | --- |
| Nc1cc(Oc2ccc(-c3nnc(Nc4cccc(C(F)(F)F)c4)o3)cc2)ncn1 [Compound 28] | > 70% | > 70% | > 70% |  |  |  |
| COc1cc(-c2nnc(Nc3cccc(C(F)(F)F)c3)[nH]2)ccc1Oc1ccncc1 [Compound 108] | > 70% | > 70% | < 50% |  |  |  |
| Cc1ccc(-c2nnc(Nc3cccc(C(F)(F)F)c3)[nH]2)cc1Oc1ccncc1 [Compound 178] | 50 to 70% | < 50% | < 50% |  |  |  |
| Fc1ccc2c(Oc3cccc(-c4nnc(Nc5cccc(C(F)(F)F)c5)[nH]4)c3)ccnc2c1 [Compound 192] | > 70% | > 70% | > 70% |  |  |  |
| CSc1nc(N)cc(Oc2ccc(-c3nnc(Nc4cc(C(C)(C)C)nn4-c4cccc(C)c4)[nH]3)cc2)n1 [Compound 139] | > 70% | > 70% | > 70% |  |  |  |
| FC(F)(F)c1cccc(Nc2nnc(-c3cccc(Oc4ncnc5[nH]ccc45)c3)o2)c1 [Compound 60] | > 70% | > 70% | > 70% |  |  |  |
| Nc1cc(F)cc(Oc2ccc(-c3nnc(Nc4cccc(C(F)(F)F)c4)[nH]3)cc2)c1 [Compound 156] | > 70% | > 70% | 50 to 70% |  |  |  |
| CSc1nc(N)cc(Oc2cccc(-c3nnc(Nc4cccc(C(F)(F)F)c4)s3)c2)n1 [Compound 48] | > 70% | > 70% | > 70% |  |  |  |
| CCOc1nc(N)cc(Oc2ccc(-c3nnc(Nc4cccc(C(F)(F)F)c4)[nH]3)cc2)n1 [Compound 79] | > 70% | < 50% | < 50% |  |  |  |
| FC(F)(F)c1cccc(Nc2nnc(-c3ccc(Oc4ccnc(Cl)c4)cc3)o2)c1 [Compound 30] | > 70% | > 70% | 50 to 70% |  |  |  |
| CSc1nc(N)cc(Oc2ccc(-c3nnc(Nc4cc(C)cc(C)c4)[nH]3)cc2)n1 [Compound 123] | < 50% | < 50% | < 50% |  |  |  |
| CSc1nc(N)cc(Oc2ccc(Nc3nnc(-c4cccc(C(F)(F)F)c4)[nH]3)cc2)n1 [Compound 176] | > 70% | > 70% | > 70% |  |  |  |
| COCCOCCSc1nc(N)cc(Oc2ccc(-c3nnc(Nc4cccc(C(F)(F)F)c4)[nH]3)cc2)n1 [Compound 113] | > 70% | > 70% |  |  |  |  |
| COc1ccc(Nc2nnc(-c3cccc(C(F)(F)F)c3)[nH]2)cc1 [Compound 183] | > 70% | > 70% | > 70% |  |  |  |
| COc1ccc2c(Oc3ccc(-c4nnc(Nc5cccc(C(F)(F)F)c5)[nH]4)cc3)cc(C)nc2c1 [Compound 188] | > 70% | > 70% | > 70% |  |  |  |
| FC(F)(F)c1cccc(Nc2nnc(-c3ccc(Oc4ccnc5ccccc45)cc3)o2)c1 [Compound 34] | > 70% | > 70% | > 70% |  |  |  |
| Nc1cc(Oc2cccc(-c3nnc(Nc4cccc(C(F)(F)F)c4)[nH]3)c2)ccn1 [Compound 18] | 50 to 70% | < 50% | < 50% |  |  |  |
| CN(C)c1cc(Oc2ccc(-c3nnc(Nc4cccc(C(F)(F)F)c4)[nH]3)cc2)c2ccccc2n1 [Compound 196] |  |  |  | > 70% | > 70% | 50 to 70% |
| FC(F)(F)c1cccc(Nc2nnc(-c3cccc(Oc4ccnc5cc(C(F)(F)F)ccc45)c3)[nH]2)c1 [Compound 165] | > 70% | > 70% | > 70% |  |  |  |
| CSc1nc(N)cc(Oc2cccc(-c3nnc(Nc4cccc(C(F)(F)F)c4)o3)c2)n1 [Compound 36] | > 70% | > 70% | > 70% |  |  |  |
| FC(F)(F)c1cccc(Nc2nnc(-c3ccc(Oc4cc(Cl)ccn4)cc3)[nH]2)c1 [Compound 5] | > 70% | > 70% | > 70% |  |  |  |
| FC(F)(F)c1cccc(Nc2nnc(-c3ccc(Oc4ccnc5ccccc45)cc3)[nH]2)c1 [Compound 12] | > 70% | > 70% | 50 to 70% |  |  |  |
